Source: patent US20180362543A1, “HIV REPLICATION INHIBITOR” (Shionogi & Co., Ltd., priority 2013, published 2018)

System: HIV (HTLV-III B strain)
Assay: HIV replication inhibition assay (MTT, MT-4 cells)
Assay type: cell-based
Procedure: HIV (HTLV-III B strain) persistent infected human T cell strain Molt-4 clone 8 was cultured in 10% Fetal Bovine Serum-containing RPMI-1640 medium and the supernatant was filtrated, then the virus titer was measured and the solution was stored at −80° C. Each anti-human immunodeficiency virus active substance was diluted with the above cultured medium to the designated concentration, which was dispensed into 96 well micro plate by 50 μL. Next, a MT-4 cell suspended liquid was dispensed by 100 μL (2.5×10^4 cells), then the above HIV-containing supernatant diluted with the above cultured medium was added thereto by 50 μL (60 pfu (plaque forming unit)).
The obtained mixture was cultured at 37° C. in CO2 incubator for four days, then 3-(4,5-dimehylthiazole-2-yl)-2,5-diphenyltetrazolynium bromide (MTT) 5 mg/mL in PBS was added to each well by 30 μL, followed by 1 hr-cultivation. In this step, as formazan was precipitated by reduction of MTT in living cells, the cell supernatant was removed from all well by 150 μL, then a 150 μL of solution (10% Triton X-100 and […]) was added thereto, followed by shaking with a plate mixer, to elute formazan. The formazan was measured with a microreader at OD: 560 nm and 690 nm (wavelength) and the result was compared with the reference. EC50 means the compound concentration at which cell cytotoxicity by virus is inhibited 50%.

[1] = Human immunodeficiency virus 1, MT4, 96 h, Table A-4, four days
[2] = Human immunodeficiency virus 1, MT4, 96 h, Table A-7, four days
[3] = Human immunodeficiency virus 1, MT4, 96 h, Table A-2, four days
[4] = Human immunodeficiency virus 1, MT4, 96 h, 4 days culture, concentration at which cell cytotoxicity by virus is inhibited 50%
[5] = Human immunodeficiency virus 1, MT4, 96 h, Table A-8 (continuation of Tables A-1 to A-9), four days
[6] = Human immunodeficiency virus 1, MT4, 96 h, Table A-5, four days
[7] = Human immunodeficiency virus 1, MT4, 96 h, Table A-3, four days

Cc1ccc(-c2c(C)c3c(c(C)c2[C@H](OC(C)(C)C)C(=O)O)N(S(C)(=O)=O)Cc2c(F)cc(F)cc2-3)cc1 [Compound 228]
EC50 [1]: 19 nM

Cc1ccc(-c2c(C)c3c(c(C)c2[C@H](OC(C)(C)C)C(=O)O)NS(=O)(=O)Cc2ccc(C)cc2-3)cc1 [Compound 120]
EC50 (Table A-2, four days): 5.1 nM

Cc1cc(C)c(-c2c(C)c3c(c(C)c2[C@H](OC(C)(C)C)C(=O)O)N(S(C)(=O)=O)Cc2cccc(F)c2-3)s1 [Compound 343]
EC50 [2]: 16 nM

Cc1ccc(-c2c(C)c3c(c(C)c2[C@H](OC(C)(C)C)C(=O)O)N(S(C)(=O)=O)Cc2cccc(F)c2-3)cc1 [Compound 109]
EC50 [3]: 9.1 nM

Cc1c(-c2c(C)c3c(c(C)c2[C@H](OC(C)(C)C)C(=O)O)N(S(C)(=O)=O)Cc2cccc(F)c2-3)ccc(Cl)c1N [Compound 327]
EC50 [2]: 7.2 nM

Cc1ccc(-c2c([C@H](OC(C)(C)C)C(=O)O)c(C)c3nc(O)c4c(c3c2C)CCCN4)cc1 [Compound 221]
EC50 [1]: 90 nM

COc1cc2c(cn1)-c1c(C)c(-c3ccc4c(c3C)NCCO4)c([C@H](OC(C)(C)C)C(=O)O)c(C)c1N(S(C)(=O)=O)C2 [Compound 322]
EC50 [4]: 11 nM

Cc1ccc(-c2c(C)c3c(c(C)c2[C@H](OC(C)(C)C)C(=O)O)NS(=O)(=O)N(C2CCCC2)CC3)cc1 [Compound 129]
EC50 [3]: 7.7 nM

Cc1ccc(-c2c(C)c3c(c(C)c2[C@H](OC(C)(C)C)C(=O)O)N(S(C)(=O)=O)Cc2ccncc2-3)cc1 [Compound 210]
EC50 [1]: 38 nM

Cc1ccc(-c2c([C@H](OC(C)(C)C)C(=O)O)c(C)c3ncc4cc(F)cnc4c3c2C)cc1 [Compound 239]
EC50 [1]: 81 nM

Cc1ccc(-c2c(C)c3c(c(C)c2[C@H](OC(C)(C)C)C(=O)O)NS(=O)(=O)N(C(c2ccccc2)c2ccccc2)CC3)cc1 [Compound 134]
EC50 [3]: 62 nM

Cc1ccc2c(n1)CN(S(C)(=O)=O)c1c(C)c([C@H](OC(C)(C)C)C(=O)O)c(-c3ccc(Cl)cc3)c(C)c1-2 [Compound 380]
EC50 [5]: 13 nM

Cc1c(C2=CCC(C)(C)CC2)c([C@H](OC(C)(C)C)C(=O)O)c(C)c2c1-c1c(F)cccc1CN2S(C)(=O)=O [Compound 258]
EC50 [6]: 3.9 nM

Cc1ccc(-c2c(C)c3c(c(C)c2[C@H](OC(C)(C)C)C(=O)O)NS(=O)(=O)Cc2ccc(C)cc2-3)cc1 [Compound 119]
EC50 (Table A-2, four days): 43 nM

COc1cc(C)c2c(c1)CN(S(C)(=O)=O)c1c(C)c([C@H](OC(C)(C)C)C(=O)O)c(-c3ccc(C)cc3)c(C)c1-2 [Compound 162]
EC50 [7]: 13 nM

Cc1ccc(-c2c(C)c3c(c(C)c2[C@H](OC(C)(C)C)C(=O)O)N(S(C)(=O)=O)Cc2c(F)ccc(C)c2-3)cc1 [Compound 172]
EC50 [7]: 42 nM

Cc1ccc(-c2c([C@H](OC(C)(C)C)C(=O)O)c(C)c3nc(O)c4c(c3c2C)CCN(S(=O)(=O)c2ccc(F)cc2)C4)cc1 [Compound 153]
EC50 [7]: 47 nM

Cc1ccc(-c2c(C)c3c(c(C)c2[C@H](OC(C)(C)C)C(=O)O)NC(=O)N(CC2CCCCC2)CC3)cc1 [Compound 150]
EC50 [7]: 22 nM

Cc1c(-c2ccc3c(c2F)NCCO3)c([C@H](OC(C)(C)C)C(=O)O)c(C)c2c1-c1c(F)cccc1CN2S(C)(=O)=O [Compound 282]
EC50 [6]: 8.8 nM

CC(=O)N1Cc2cccc(F)c2-c2c(C)c(-c3ccc4c(c3C)NCCO4)c([C@H](OC(C)(C)C)C(=O)O)c(C)c21 [Compound 342]
EC50 [2]: 9 nM

Cc1ccc(-c2c(C)c3c(c(C)c2[C@H](OC(C)(C)C)C(=O)O)N(S(C)(=O)=O)Cc2cc(C(F)(F)F)ccc2-3)cc1 [Compound 159]
EC50 [7]: 5.3 nM

COCCN1CCc2c(C)c(-c3ccc(C)cc3)c([C@H](OC(C)(C)C)C(=O)O)c(C)c2NS1(=O)=O [Compound 132]
EC50 [3]: 22 nM

Cc1ccc(-c2c(C)c3c(c(C)c2[C@H](OC(C)(C)C)C(=O)O)NC(=O)C2(CCC(C)(C)CC2)N3)cc1 [Compound 112]
EC50 [3]: 8.5 nM

Cc1ccc(-c2c(C)c3c(c(C)c2[C@H](OC(C)(C)C)C(=O)O)N(S(C)(=O)=O)Cc2cc(F)c(N(C)C)nc2-3)cc1 [Compound 398]
EC50 [5]: 80 nM

Cc1c(-c2c(C)c3c(c(C)c2[C@H](OC(C)(C)C)C(=O)O)N(S(C)(=O)=O)Cc2cccc(F)c2-3)ccc2c1NC(=O)CO2 [Compound 350]
EC50 [2]: 96 nM

Cc1ccc(-c2c(C)c3c(c(C)c2[C@H](OC(C)(C)C)C(=O)O)N(S(C)(=O)=O)Cc2cnc(C(F)(F)F)cc2-3)cc1 [Compound 385]
EC50 [5]: 39 nM

Cc1ccc(-c2c(C)c3c(c(C)c2[C@H](OC(C)(C)C)C(=O)O)NC(=O)CCc2ccccc2-3)cc1 [Compound 42]
EC50 [4]: 10 nM

Cc1ccc(-c2c(C)c3c(c(C)c2[C@H](OC(C)(C)C)C(=O)O)N(S(C)(=O)=O)Cc2cccc(F)c2-3)s1 [Compound 334]
EC50 [2]: 22 nM

Cc1ccc(-c2c(C)c3c(c(C)c2[C@H](OC(C)(C)C)C(=O)O)N(S(C)(=O)=O)Cc2c(C)ccnc2-3)cc1 [Compound 392]
EC50 [5]: 31 nM

Cc1ccc(-c2c(C)c3c(c(C)c2[C@H](OC(C)(C)C)C(=O)O)N(S(C)(=O)=O)Cc2ccc(C(F)(F)F)nc2-3)cc1 [Compound 397]
EC50 [5]: 33 nM

Cc1ccc(-c2c(C)c3c(c(C)c2[C@H](OC(C)(C)C)C(=O)O)NC(=O)N(C2CCCCCC2)CC3)cc1 [Compound 148]
EC50 [7]: 8.8 nM

Cc1ccc(-c2c(C)c3c(c(C)c2[C@H](OC(C)(C)C)C(=O)O)N(S(C)(=O)=O)Cc2cc(C(F)(F)F)cnc2-3)cc1 [Compound 391]
EC50 [5]: 4.1 nM

Cc1ccc(-c2c(C)c3c(c(C)c2[C@H](OC(C)(C)C)C(=O)O)NC(=O)N(C(c2ccccc2)c2ccccc2)CC3)cc1 [Compound 152]
EC50 [7]: 16 nM

Cc1c(-c2ccc(Cl)cc2O)c([C@H](OC(C)(C)C)C(=O)O)c(C)c2c1-c1c(F)cccc1CN2S(C)(=O)=O [Compound 324]
EC50 [2]: 8.1 nM

Cc1ccc(-c2c(C)c3c(c(C)c2[C@H](OC(C)(C)C)C(=O)O)N(S(C)(=O)=O)Cc2ccc4c(c2-3)OCCO4)cc1 [Compound 395]
EC50 [5]: 34 nM

CC(=O)N1Cc2ccccc2-c2c(C)c(-c3ccc(C)cc3)c([C@H](OC(C)(C)C)C(=O)O)c(C)c21 [Compound 290]
EC50 [6]: 53 nM

Cc1cc(Cl)ccc1-c1c(C)c2c(c(C)c1[C@H](OC(C)(C)C)C(=O)O)N(S(C)(=O)=O)Cc1c(F)ccc(F)c1-2 [Compound 317]
EC50 (4 days culture, concentration at which cell cytotoxicity by virus is inhibited 50%): 70 nM

Cc1ccc(-c2c(C)c3c(c(C)c2[C@H](OC(C)(C)C)C(=O)O)N(S(C)(=O)=O)Cc2cc(F)cnc2-3)cc1 [Compound 284]
EC50 [6]: 16 nM

Cc1ccc(-c2c([C@H](OC(C)(C)C)C(=O)O)c(C)c3nc(N)c4cc(F)cnc4c3c2C)cc1 [Compound 245]
EC50 [1]: 15 nM

Cc1ccc(-c2c(C)c3c(c(C)c2[C@H](OC(C)(C)C)C(=O)O)N(S(C)(=O)=O)Cc2c(C)cccc2-3)cc1 [Compound 208]
EC50 [1]: 15 nM

COc1ccc(-c2c(C)c3c(c(C)c2[C@H](OC(C)(C)C)C(=O)O)N(S(C)(=O)=O)Cc2cccc(F)c2-3)c(C)c1 [Compound 275]
EC50 [6]: 15 nM

Cc1ccc(-c2c([C@H](OC(C)(C)C)C(=O)O)c(C)c3nc(O)c4cc5ccccc5nc4c3c2C)cc1 [Compound 233]
EC50 [1]: 38 nM

Cc1ccc(-c2c(C)c3c(c(C)c2[C@H](OC(C)(C)C)C(=O)O)N(S(C)(=O)=O)Cc2cc4c(cc2-3)OCCCO4)cc1 [Compound 175]
EC50 [7]: 2.9 nM

Cc1ccc(-c2c(C)c3c(c(C)c2[C@H](OC(C)(C)C)C(=O)O)N(C(N)=O)Cc2c(F)ccc(F)c2-3)cc1 [Compound 335]
EC50 [2]: 30 nM

Cc1ccc(-c2c(C)c3c(c(C)c2[C@H](OC(C)(C)C)C(=O)O)N(S(C)(=O)=O)Cc2cc(F)c(F)cc2-3)cc1 [Compound 108]
EC50 [3]: 12 nM

Cc1ccc(-c2c(C)c3c(c(C)c2[C@H](OC(C)(C)C)C(=O)O)N(S(C)(=O)=O)Cc2ccccc2-3)cc1 [Compound 20]
EC50 [4]: 13 nM

Cc1ccc(-c2c(C)c3c(c(C)c2[C@H](OC(C)(C)C)C(=O)O)NS(=O)(=O)Cc2cccc(C)c2-3)cc1 [Compound 125]
EC50 [3]: 39 nM

Cc1ccc(-c2c(C)c3c(c(C)c2[C@H](OC(C)(C)C)C(=O)O)N(S(C)(=O)=O)Cc2c-3ccc3cccnc23)cc1 [Compound 116]
EC50 [3]: 2.9 nM

Cc1ccc(-c2c(C)c3c(c(C)c2[C@H](OC(C)(C)C)C(=O)O)N(S(C)(=O)=O)Cc2cc4c(cc2-3)COC4)cc1 [Compound 166]
EC50 [7]: 1.7 nM

Cc1c(-c2ccc3c(c2)NCCO3)c([C@H](OC(C)(C)C)C(=O)O)c(C)c2c1-c1c(F)cccc1CN2S(C)(=O)=O [Compound 260]
EC50 [6]: 14 nM

Cc1ccc(-c2c(C)c3c(c(C)c2[C@H](OC(C)(C)C)C(=O)O)N(S(C)(=O)=O)Cc2c(F)cccc2-3)cc1 [Compound 163]
EC50 [7]: 15 nM

Cc1c(-c2ccc(F)cc2O)c([C@H](OC(C)(C)C)C(=O)O)c(C)c2c1-c1c(F)ccc(F)c1CN2S(C)(=O)=O [Compound 332]
EC50 [2]: 24 nM

Cc1ccc(-c2c(C)c3c(c(C)c2[C@H](OC(C)(C)C)C(=O)O)N(S(C)(=O)=O)Cc2ccc(F)cc2-3)cc1 [Compound 161]
EC50 [7]: 21 nM

Cc1c(-c2c(C)c3c(c(C)c2[C@H](OC(C)(C)C)C(=O)O)N(S(C)(=O)=O)Cc2c(F)ccc(F)c2-3)ccc2c1CCCO2 [Compound 246]
EC50 [1]: 2.3 nM
